From US20180153826A1, “MATERIALS AND METHODS FOR THE TREATMENT OF CYSTIC FIBROSIS” (UNIVERSITY OF FLORIDA RESEARCH FOUNDATION, INC., priority 2015, published 2018)

Columns and labels:
[1] = tested on: HCO3^− secretion by colonic mucosa; assay: Basal HCO3^− secretion (pH stat JHCO3 and Isc, Ussing chamber); set-up: species or system rat
Protocol: Experiments were performed using non-fasting male Sprague-Dawley rats and C57BL/6 mice. Rats weighting 100-400 g were obtained from Charles River Laboratories. Mice lacking CaSR expression in intestinal epithelial cells (CaSR^−/−) and their CaSR^+/+ littermates were bred and maintained. CaSR^−/− mice were generated as previously described. Briefly, CaSR flox/flox mice were bred with transgenic mice expressing Cre Recombinase under the control of the villin 1 promoter and genotyped prior to all experiments after an approximate 10-12 generations. Mice were used at 5-10 weeks of age. Animals were fed and maintained on regular chow (Harlan) with free access to water before sacrifice. Animals were sacrificed with standard CO2 inhalation followed by cervical dislocation. The colons were isolated, cut open along the mesenteric border into a flat sheet, and flushed with ice-cold Ringer solutions. […]
(§1) Two types of approaches were used in the measurement of colonic HCO3^− secretion, namely, measurement of lumen pH or pH stat titration of net alkalinization by colonic mucosa. […] The amount of the acid delivered per unit time per surface area was used to quantitate HCO3^− secretion by the mucosa. Measurements were recorded continuously and mean values for consecutive 5 or 10 min periods were averaged. The rate of HCO3^− secretion (JHCO3) is expressed as μEq/hr/cm^2. The short-circuit current (Isc) was measured in microamperes (μA) and converted into μEq/hr/cm^2. Tissue resistance (R, Ω cm^2) was calculated from Ohm's law.
Two adjacent sheets of mucosa from each colon were mounted into two Ussing chambers and bathed luminally with HCO3^−-free Cl^− Ringer solution and serosally with HCO3^−-containing Cl^− Ringer solution. After 15 to 30 min, when Isc and JHCO3 had stabilized, the CaSR agonist, R568 was added to the serosal or mucosal side of tissue, and changes in Isc and JHCO3 during the 15-30 min period ensuing after the addition of the agonist were determined.

[2] = tested on: HCO3^− secretion by colonic mucosa; assay: Acid-induced HCO3^− secretion (lumen pH recovery); set-up: species or system rat; details: 10 μM, serosa
Protocol: (§2) Stripped mucosal sheets were mounted into Ussing chambers (window area=0.3-0.5 cm^2, Physiologic Instruments, San Diego, Calif.). The mucosal side of tissue was bathed with an unbuffered HCO3^−-free Cl^− Ringer solution (see Table 2 for detailed composition) circulated by a gas lift with 100% O2 while the serosal side was bathed with buffered Cl^− Ringer solution (pH 7.4) that contained 25 mM HCO3^− and gassed with 5% CO2/95% O2. Each side contained 3-5 ml of solution and the temperature of the solution was adjusted to and maintained at 37° C. by heated water-jacketed reservoirs. […]
as §1, with “law. […]” for “law.”

[3] = tested on: HCO3^− secretion by colonic mucosa; assay: Secretagogue (forskolin)-induced HCO3^− secretion, lumen Cl^−-containing Ringer; set-up: species or system rat; details: 10 μM serosa, added after forskolin 500 nM
Protocol: as §2
as §1, with “law. […]” for “law.”

[4] = tested on: colon mucosa of wild type mice; assay: HCO3^− secretion in colon mucosa of wild type (CaSR^+/+) mice; set-up: species or system mouse
Protocol: FIGS. 13A-13F. […] Colonic mucosa from wild type (CaSR^+/+) (A-C) and knockout (CaSR^-/-) mice (D-F) were isolated and treated, and activities of the three HCO3^- transporters assayed as in rats. Data are means±SEM of 4-6 experiments. *p<0.05 vs. control (1st bar). Experiments were performed using non-fasting male Sprague-Dawley rats and C57BL/6 mice. Rats weighting 100-400 g were obtained from Charles River Laboratories. Mice lacking CaSR expression in intestinal epithelial cells (CaSR^-/-) and their CaSR^+/+ littermates were bred and maintained. CaSR^-/- mice were generated as previously described. Briefly, CaSR flox/flox mice were bred with transgenic mice expressing Cre Recombinase under the control of the villin 1 promoter and genotyped prior to all experiments after an approximate 10-12 generations. Mice were used at 5-10 weeks of age. Animals were fed and maintained on regular chow (Harlan) with free access to water before sacrifice. Animals were sacrificed with standard CO2 inhalation followed by cervical dislocation. The colons were isolated, cut open along the mesenteric border into a flat sheet, and flushed with ice-cold Ringer solutions. Mucosa from the distal colon were carefully hand-stripped off of serosal, muscular and submucosal layers as described and a pair of adjacent mucosal segments were incised and mounted into Ussing chambers. In some experiments, stripped mucosa was incised longitudinally into two equal pieces in order to facilitate comparisons between control and treatment. […] To verify that the effects of […] occurred via the CaSR, additional studies on the effect of […] were performed in intestinal epithelium-specific CaSR knockout mice (FIG. 13). Intestinal epithelium-specific CaSR knockout mice were used together with their wild type littermates.

[5] = tested on: colon mucosa of CaSR null mice; assay: HCO3^− secretion in colon mucosa of CaSR null (CaSR^−/−) mice; set-up: species or system mouse
Protocol: FIGS. 13A-13F. […] Colonic mucosa from wild type (CaSR^+/+) (A-C) and knockout (CaSR^-/-) mice (D-F) were isolated and treated, and activities of the three HCO3^- transporters assayed as in rats. Data are means±SEM of 4-6 experiments. *p<0.05 vs. control (1st bar). Experiments were performed using non-fasting male Sprague-Dawley rats and C57BL/6 mice. Rats weighting 100-400 g were obtained from Charles River Laboratories. Mice lacking CaSR expression in intestinal epithelial cells (CaSR^-/-) and their CaSR^+/+ littermates were bred and maintained. CaSR^-/- mice were generated as previously described. Briefly, CaSR flox/flox mice were bred with transgenic mice expressing Cre Recombinase under the control of the villin 1 promoter and genotyped prior to all experiments after an approximate 10-12 generations. Mice were used at 5-10 weeks of age. Animals were fed and maintained on regular chow (Harlan) with free access to water before sacrifice. Animals were sacrificed with standard CO2 inhalation followed by cervical dislocation. The colons were isolated, cut open along the mesenteric border into a flat sheet, and flushed with ice-cold Ringer solutions. Mucosa from the distal colon were carefully hand-stripped off of serosal, muscular and submucosal layers as described and a pair of adjacent mucosal segments were incised and mounted into Ussing chambers. […]

## COc1cccc([C@@H](C)NCCCc2ccccc2Cl)c1.Cl [R568, 2-Chloro-N-[(1R)-1-(3-methoxyphenyl)ethyl]-benzenepropanamine hydrochloride]
[1]; 10 μM, added to serosa
  basal JHCO3 response: significantly stimulated
[1]; basal, absence 1.36±0.40, n=5, p>0.05
  Isc in presence of R568: 1.48±0.44 μEq/hr/cm^2
[1]; under normal Ca^2+o condition
  effects of R568 compared with reduced Ca^2+o: qualitatively similar, albeit with a slightly less pronounced effect
[2]
  acid-induced HCO3^− secretion (pH recovery rate): transient but significant stimulation
[3]
  effect on forskolin-induced HCO3^− secretion: did not increase but rather decreased
[4]
  Cl^−-dependent HCO3^− secretion: stimulated
  SCFA-dependent HCO3^− secretion: stimulated
  cAMP-dependent HCO3^− secretion: inhibited
[5]
  R568 effects on Cl^−-, SCFA- and cAMP-dependent HCO3^− secretion: abolished
